Test results taken from ChEMBL document CHEMBL1201862, “PubChem BioAssay data set” (2004).
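Test compounds were applied to cells in 96-well plates for 48 hours at 5 doses. The concentration for 50% growth inhibition is given as GI50.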 The source made the active and inactive calls. No stated cut-off is given here; in the data, active = GI50 up to about 1.1 µM and inactive = higher.

What was measured:
Experiment in all cases: NCI-60 cell line screen, 48 h
HT-29 = system: HT-29
OVCAR-8 = system: OVCAR-8
MDA-MB-231 = system: MDA-MB-231
SW-620 = system: SW-620
EKVX = system: EKVX
KM12 = system: KM12
HL-60 = system: HL-60
786-0 = system: 786-0
TK-10 = system: TK-10
HCT-116 = system: HCT-116
SF-268 = system: SF-268
MOLT-4 = system: MOLT-4
T47D = system: T47D
UACC-62 = system: UACC-62
IGROV-1 = system: IGROV-1
U-251 = system: U-251
Hs-578T = system: Hs-578T
SR = system: SR
HCT-15 = system: HCT-15
SNB-19 = system: SNB-19
NCI-H23 = system: NCI-H23
BT-549 = system: BT-549
UO-31 = system: UO-31
SNB-75 = system: SNB-75
SK-MEL-2 = system: SK-MEL-2
NCI-H226 = system: NCI-H226
PC-3 = system: PC-3
NCI/ADR-RES = system: NCI/ADR-RES
SF-295 = system: SF-295
SK-MEL-5 = system: SK-MEL-5
CCRF-CEM = system: CCRF-CEM
OVCAR-4 = system: OVCAR-4
HCC 2998 = system: HCC 2998
MDA-MB-435 = system: MDA-MB-435
NCI-H460 = system: NCI-H460
SK-MEL-28 = system: SK-MEL-28
UACC-257 = system: UACC-257
ACHN = system: ACHN
RPMI-8226 = system: RPMI-8226
HOP-92 = system: HOP-92
LOX IMVI = system: LOX IMVI
HOP-62 = system: HOP-62
RXF 393 = system: RXF 393
CAKI-1 = system: CAKI-1
DU-145 = system: DU-145
COLO 205 = system: COLO 205
K562 = system: K562
A498 = system: A498
SK-OV-3 = system: SK-OV-3
SF-539 = system: SF-539
OVCAR-5 = system: OVCAR-5
Malme-3M = system: Malme-3M
A549 = system: A549
OVCAR-3 = system: OVCAR-3
M14 = system: M14
SN12C = system: SN12C
MCF7 = system: MCF7
NCI-H522 = system: NCI-H522

COc1ccc(NC(=O)C2=C(SC)C(=O)N=C2N)cc1
GI50 (HT-29): > 100 µM (inactive) | GI50 (OVCAR-8): > 100 µM (inactive) | GI50 (MDA-MB-231): > 100 µM (inactive) | GI50 (SW-620): > 100 µM (inactive) | GI50 (EKVX): > 100 µM (inactive) | GI50 (KM12): > 100 µM (inactive) | GI50 (HL-60): > 100 µM (inactive) | GI50 (786-0): > 100 µM (inactive) | GI50 (TK-10): > 100 µM (inactive) | GI50 (HCT-116): > 100 µM (inactive) | GI50 (SF-268): > 100 µM (inactive) | GI50 (MOLT-4): > 100 µM (inactive) | GI50 (T47D): > 100 µM (inactive) | GI50 (UACC-62): > 100 µM (inactive) | GI50 (IGROV-1): 61.7 µM (inactive) | GI50 (U-251): > 100 µM (inactive) | GI50 (Hs-578T): > 100 µM (inactive) | GI50 (SR): 40.6 µM (inactive) | GI50 (HCT-15): > 100 µM | GI50 (SNB-19): > 100 µM (inactive) | GI50 (NCI-H23): > 100 µM (inactive) | GI50 (BT-549): > 100 µM (inactive) | GI50 (UO-31): > 100 µM (inactive) | GI50 (SNB-75): > 100 µM (inactive) | GI50 (SK-MEL-2): 82 µM (inactive) | GI50 (NCI-H226): > 100 µM (inactive) | GI50 (PC-3): > 100 µM (inactive) | GI50 (NCI/ADR-RES): > 100 µM (inactive) | GI50 (SF-295): > 100 µM (inactive) | GI50 (SK-MEL-5): > 100 µM (inactive) | GI50 (CCRF-CEM): > 100 µM (inactive) | GI50 (OVCAR-4): > 100 µM (inactive) | GI50 (HCC 2998): > 100 µM (inactive) | GI50 (MDA-MB-435): > 100 µM (inactive) | GI50 (NCI-H460): > 100 µM (inactive) | GI50 (SK-MEL-28): > 100 µM (inactive) | GI50 (UACC-257): > 100 µM (inactive) | GI50 (ACHN): > 100 µM (inactive) | GI50 (RPMI-8226): > 100 µM (inactive) | GI50 (HOP-92): > 100 µM (inactive) | GI50 (LOX IMVI): > 100 µM (inactive) | GI50 (HOP-62): > 100 µM (inactive) | GI50 (RXF 393): > 100 µM (inactive) | GI50 (CAKI-1): > 100 µM (inactive) | GI50 (DU-145): > 100 µM (inactive) | GI50 (COLO 205): > 100 µM (inactive) | GI50 (K562): > 100 µM (inactive) | GI50 (A498): > 100 µM (inactive) | GI50 (SK-OV-3): > 100 µM (inactive)

COc1cc(O)cc(O)c1C(=O)CC(Cl)(Cl)Cl
GI50 (HT-29): > 100 µM (inactive) | GI50 (OVCAR-8): > 100 µM (inactive) | GI50 (MDA-MB-231): > 100 µM (inactive) | GI50 (SW-620): > 100 µM (inactive) | GI50 (EKVX): > 100 µM (inactive) | GI50 (KM12): > 100 µM (inactive) | GI50 (HL-60): > 100 µM (inactive) | GI50 (786-0): > 100 µM (inactive) | GI50 (TK-10): > 100 µM (inactive) | GI50 (HCT-116): > 100 µM (inactive) | GI50 (SF-268): > 100 µM (inactive) | GI50 (MOLT-4): > 100 µM (inactive) | GI50 (T47D): > 100 µM (inactive) | GI50 (UACC-62): > 100 µM (inactive) | GI50 (IGROV-1): > 100 µM (inactive) | GI50 (SF-539): > 100 µM (inactive) | GI50 (U-251): > 100 µM (inactive) | GI50 (Hs-578T): > 100 µM (inactive) | GI50 (OVCAR-5): > 100 µM (inactive) | GI50 (Malme-3M): > 100 µM (inactive) | GI50 (SR): > 100 µM (inactive) | GI50 (HCT-15): > 100 µM | GI50 (SNB-19): > 100 µM (inactive) | GI50 (A549): > 100 µM (inactive) | GI50 (NCI-H23): > 100 µM (inactive) | GI50 (BT-549): > 100 µM (inactive) | GI50 (UO-31): > 100 µM (inactive) | GI50 (NCI-H226): > 100 µM (inactive) | GI50 (PC-3): > 100 µM (inactive) | GI50 (OVCAR-3): > 100 µM (inactive) | GI50 (NCI/ADR-RES): > 100 µM (inactive) | GI50 (SF-295): > 100 µM (inactive) | GI50 (SK-MEL-5): > 100 µM (inactive) | GI50 (CCRF-CEM): > 100 µM (inactive) | GI50 (M14): > 100 µM (inactive) | GI50 (OVCAR-4): > 100 µM (inactive) | GI50 (HCC 2998): > 100 µM (inactive) | GI50 (MDA-MB-435): > 100 µM (inactive) | GI50 (NCI-H460): > 100 µM (inactive) | GI50 (SK-MEL-28): > 100 µM (inactive) | GI50 (UACC-257): > 100 µM (inactive) | GI50 (SN12C): > 100 µM (inactive) | GI50 (ACHN): > 100 µM (inactive) | GI50 (MCF7): > 100 µM (inactive) | GI50 (RPMI-8226): 40.1 µM (inactive) | GI50 (HOP-92): > 100 µM (inactive) | GI50 (LOX IMVI): > 100 µM (inactive) | GI50 (HOP-62): > 100 µM (inactive) | GI50 (RXF 393): > 100 µM (inactive) | GI50 (CAKI-1): > 100 µM (inactive) | GI50 (DU-145): > 100 µM (inactive) | GI50 (COLO 205): > 100 µM (inactive) | GI50 (K562): > 100 µM (inactive) | GI50 (A498): > 100 µM (inactive) | GI50 (SK-OV-3): > 100 µM (inactive) | GI50 (NCI-H522): > 100 µM (inactive)

Cc1ccc(NC(=O)CC(=O)N2N=C(N(c3ccccc3)c3ccccc3)CC2c2ccccc2)cc1 (centres undefined)
GI50 (HT-29): > 100 µM (inactive) | GI50 (OVCAR-8): > 100 µM (inactive) | GI50 (MDA-MB-231): > 100 µM (inactive) | GI50 (SW-620): > 100 µM (inactive) | GI50 (EKVX): > 100 µM (inactive) | GI50 (KM12): > 100 µM (inactive) | GI50 (HL-60): > 100 µM (inactive) | GI50 (786-0): > 100 µM (inactive) | GI50 (TK-10): > 100 µM (inactive) | GI50 (HCT-116): > 100 µM (inactive) | GI50 (SF-268): 75.7 µM (inactive) | GI50 (MOLT-4): > 100 µM (inactive) | GI50 (T47D): > 100 µM (inactive) | GI50 (UACC-62): > 100 µM (inactive) | GI50 (IGROV-1): > 100 µM (inactive) | GI50 (SF-539): > 100 µM (inactive) | GI50 (U-251): > 100 µM (inactive) | GI50 (Hs-578T): 31.6 µM (inactive) | GI50 (OVCAR-5): > 100 µM (inactive) | GI50 (HCT-15): > 100 µM | GI50 (SNB-19): > 100 µM (inactive) | GI50 (A549): > 100 µM (inactive) | GI50 (NCI-H23): > 100 µM (inactive) | GI50 (BT-549): > 100 µM (inactive) | GI50 (UO-31): > 100 µM (inactive) | GI50 (SNB-75): 91.4 µM (inactive) | GI50 (SK-MEL-2): > 100 µM (inactive) | GI50 (NCI-H226): > 100 µM (inactive) | GI50 (PC-3): 85.7 µM (inactive) | GI50 (OVCAR-3): > 100 µM (inactive) | GI50 (NCI/ADR-RES): > 100 µM (inactive) | GI50 (SF-295): > 100 µM (inactive) | GI50 (SK-MEL-5): > 100 µM (inactive) | GI50 (CCRF-CEM): > 100 µM (inactive) | GI50 (M14): > 100 µM (inactive) | GI50 (OVCAR-4): > 100 µM (inactive) | GI50 (HCC 2998): > 100 µM (inactive) | GI50 (MDA-MB-435): > 100 µM (inactive) | GI50 (NCI-H460): > 100 µM (inactive) | GI50 (SK-MEL-28): > 100 µM (inactive) | GI50 (UACC-257): > 100 µM (inactive) | GI50 (ACHN): > 100 µM (inactive) | GI50 (MCF7): > 100 µM (inactive) | GI50 (RPMI-8226): > 100 µM (inactive) | GI50 (HOP-92): > 100 µM (inactive) | GI50 (HOP-62): > 100 µM (inactive) | GI50 (RXF 393): 52.8 µM (inactive) | GI50 (CAKI-1): > 100 µM (inactive) | GI50 (DU-145): > 100 µM (inactive) | GI50 (COLO 205): > 100 µM (inactive) | GI50 (K562): > 100 µM (inactive) | GI50 (A498): > 100 µM (inactive) | GI50 (SK-OV-3): > 100 µM (inactive) | GI50 (NCI-H522): > 100 µM (inactive)
